Common to all, as to assay: NCI tumour cell line growth inhibition, 48 h
For test [1], the system named is A498 renal.
Test [2] has as its system COLO 205 colon.
The subject of test [3] is K-562 leukemia.
Test [4] relates to LOX IMVI melanoma.
Test [5] concerns M14 melanoma.
For test [6], the system named is MALME-3M melanoma.
Test [7] concerns OVCAR-8 ovarian.
The test system of test [8] is RXF 393 renal.
Test [9] has as its system SK-OV-3 ovarian.
Test [10] concerns SNB-75 CNS.
In test [11] the test system is T-47D breast.
Test [12] deals with U251 CNS.
Test [13] has as its system UO-31 renal.

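Test compounds were applied to cells in 96-well plates for 48 hours at 5 doses. GI50 is the concentration that inhibits growth by half. TGI is the concentration that stops growth completely.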 Where a SMILES comes first, the peptide text is derived from it. The star is where a group is joined. Boc = CC(C)(C)OC(=O)*

As for `COCOC1/C=C/CCCCC2=C(C)C=C(C1)O2` (configuration not stated), the TGI in [1], in test [2], in [3], in test [4], in [5] and in [6] was > 100 µM each time. In addition, the TGI in test [7], in test [8], in [9], in test [10], in [11] and in [12] was > 100 µM in each case. For the same compound, the TGI in [13] was > 100 µM.
Turning to `COC(=O)C1(C(=O)OC)CC2=C(S(=O)(=O)c3ccccc3)C[C@H](S(=O)(=O)c3ccccc3)[C@H]2C1`, the TGI was > 100 µM in test [1]; > 100 µM in test [2]; 58.5 µM in test [3]; > 100 µM in test [4]; > 100 µM in test [5]; > 100 µM in [6]. Moreover, the TGI in [7] is > 100 µM; in test [8], 66.2 µM; in test [9] it was > 100 µM; in test [10], 93.6 µM; in [11], 92.6 µM; in test [12] it was > 100 µM. Further, the TGI in [13] is > 100 µM.
In the case of `Cc1c(F)c(N)c2c(=O)cc(-c3ccc(NC(=O)CN(C)C)c(F)c3)oc2c1F`, the TGI in test [1] is 5.77 µM; in test [2], > 100 µM; in test [3], 98.9 µM; in [4], > 100 µM; in test [5], > 100 µM; in [6], > 100 µM. In addition, the TGI in test [7] is > 100 µM; in [8], > 100 µM; in test [9], > 100 µM; in [10], > 100 µM; in test [11] it was > 100 µM; in test [12], > 81.1 µM. For the same compound, in [13], the TGI was > 100 µM. In addition, in [10], the GI50 was 32.9 µM.
`CC(C)(C)C1=C(Br)C(Br)(C(C)(C)C)OP1(=O)c1ccccc1` (configuration not stated): the TGI in [1], in [2], in test [3], in test [4], in test [5] and in test [6] was > 100 µM each time. Besides, the TGI in test [7], in [8], in [9], in [10], in test [11] and in test [12] was > 100 µM in each case. In addition, the TGI in test [13] is > 100 µM.
`C[N+]1=C2[B-](C(C)(C)C)=[N+](C(C)(C)C)[B-]2(C(C)(C)C)[N+](C)=C2[B-](C(C)(C)C)=[N+](C(C)(C)C)[B-]21C(C)(C)C` (configuration not stated): the TGI in [1], in test [2], in test [3], in test [4], in [5] and in test [6] was > 100 µM in each case. Besides, the TGI in test [7], in test [8], in test [9], in test [10], in test [11] and in test [12] was > 100 µM each time. Moreover, the TGI in test [13] was > 100 µM.
In the case of `CN(C)CCCOc1nc2c(c(=O)n(C)c(=O)n2C)n1C` (tested in a mixture with another compound), the TGI in test [1] is > 100 µM; in [2] it was > 100 µM; in test [3] it was > 100 µM; in [4] it was 9.8 µM; in [5], > 100 µM; in test [6], 27.4 µM. Besides, the TGI in [7], in [8], in [9], in test [10], in [11] and in test [12] was > 100 µM in each case. Also, the TGI in test [13] was > 100 µM.
For the compound `Cc1nc(-c2ccc([N+](=O)[O-])cc2)cn2c1nc1ccccc12`, the TGI in test [1], in test [2], in test [3], in [4], in [5] and in [6] was > 100 µM throughout. The TGI in test [7] is > 100 µM; in test [8] it was > 100 µM; in test [9] it was > 100 µM; in test [10], 69 µM; in [11], > 100 µM; in test [12] it was > 100 µM. Moreover, in [13], the TGI was > 100 µM.
As to `COC(=O)CNC(=O)C(Cc1ccccc1)NC(=O)C(CCSC)NC(=O)C(Cc1ccc(O)cc1)NC(=O)OC(C)(C)C` (configuration not stated) (Boc-YMFG-OMe; configuration not given here), the TGI in test [1] was > 100 µM; in test [2], > 100 µM; in test [3], > 100 µM; in test [4], 32.7 µM; in [5] it was > 100 µM; in test [6], > 100 µM. The TGI in [7], in [8], in [9], in test [10], in test [11] and in test [12] was > 100 µM throughout. In addition, the TGI in [13] is > 100 µM.
As for `CCCCCCCCCCCCCCCCCCNc1ccn(C2OC(COP(=O)(O)OCC3OC(n4ccc(NC(=O)CCCCCCCCCCCCCCCCC)nc4=O)C(OC(C)=O)C3OC(C)=O)C(OC(C)=O)C2OC(C)=O)c(=O)n1` (configuration not stated), the TGI in test [1], in test [2], in [3], in [4], in test [5] and in test [6] was > 100 µM each time. Also, the TGI in test [7], in test [8], in test [9], in test [10], in [11] and in test [12] was > 100 µM throughout. The TGI in test [13] is > 100 µM.
With `CC(C)c1ccc2[nH]c(O)c(-c3[nH]c4ccccc4c3N=O)c2c1`, the TGI amounted to 9.29 µM in test [1]; 18.1 µM in test [2]; 17.8 µM in test [3]; 17.7 µM in test [4]; 23.6 µM in test [5]; 14.4 µM in test [6]. Besides, the TGI in test [7] came out at 14.6 µM; in test [8], 6.66 µM; in test [9] it was 19.6 µM; in [10] it was 26.3 µM; in test [11] it was 25.4 µM; in test [12] it was 19.9 µM. For the same compound, the TGI in test [13] was 12 µM.
For the compound `COc1ccc(C2CC(c3c(O)ccc4ccccc34)=NN2c2ccc([N+](=O)[O-])cc2[N+](=O)[O-])cc1OC` (configuration not stated), the TGI is 35.9 µM in test [1]; 49 µM in test [2]; 20.2 µM in test [3]; > 100 µM in [4]; > 100 µM in test [5]; 56.4 µM in test [6]. Further, the TGI in test [7] was 27.3 µM; in [8], > 71.1 µM; in test [9], > 88 µM; in test [10], 70.8 µM; in test [11] it was 79.7 µM; in [12] it was > 100 µM. This compound gave a TGI in [13] of 97.4 µM.
With `COc1ccccc1Nc1nc(N)nc(N)c1N=O`, the TGI in test [1], in test [2], in test [3], in test [4], in test [5] and in [6] was > 100 µM throughout. The TGI in [7], in test [8], in [9], in [10], in test [11] and in test [12] was > 100 µM throughout. In addition, the TGI in test [13] is > 100 µM.

The record behind these values is PubChem BioAssay (NCI).
